One experiment deals with T1, CYP72A9 (Arabidopsis thaliana, UniProt F4IW82).
T1 sequence (F4IW82 1-508): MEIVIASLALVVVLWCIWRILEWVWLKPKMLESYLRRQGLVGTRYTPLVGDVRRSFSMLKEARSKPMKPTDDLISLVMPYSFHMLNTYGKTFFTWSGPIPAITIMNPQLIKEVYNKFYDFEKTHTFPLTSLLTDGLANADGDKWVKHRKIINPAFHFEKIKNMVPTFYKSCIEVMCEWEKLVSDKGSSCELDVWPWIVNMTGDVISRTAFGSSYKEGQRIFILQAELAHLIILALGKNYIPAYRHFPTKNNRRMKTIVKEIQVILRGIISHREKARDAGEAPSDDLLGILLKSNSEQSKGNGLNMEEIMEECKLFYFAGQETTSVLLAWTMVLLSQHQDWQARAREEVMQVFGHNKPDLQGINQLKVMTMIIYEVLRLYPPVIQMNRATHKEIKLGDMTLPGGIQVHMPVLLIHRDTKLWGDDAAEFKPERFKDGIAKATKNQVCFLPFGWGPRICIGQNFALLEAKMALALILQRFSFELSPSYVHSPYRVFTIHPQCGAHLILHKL
Nature of the experiment: feeding of recombinant WAT11 yeast culture, GC-MS of products. In kind it is cell-based. To be noted: AtCPR1 co-expressed, 30 °C, 16 h.

The next experiment has as its target T2, CYP72A15 (Arabidopsis thaliana, UniProt Q9LUC5).
T2 sequence (Q9LUC5 1-512): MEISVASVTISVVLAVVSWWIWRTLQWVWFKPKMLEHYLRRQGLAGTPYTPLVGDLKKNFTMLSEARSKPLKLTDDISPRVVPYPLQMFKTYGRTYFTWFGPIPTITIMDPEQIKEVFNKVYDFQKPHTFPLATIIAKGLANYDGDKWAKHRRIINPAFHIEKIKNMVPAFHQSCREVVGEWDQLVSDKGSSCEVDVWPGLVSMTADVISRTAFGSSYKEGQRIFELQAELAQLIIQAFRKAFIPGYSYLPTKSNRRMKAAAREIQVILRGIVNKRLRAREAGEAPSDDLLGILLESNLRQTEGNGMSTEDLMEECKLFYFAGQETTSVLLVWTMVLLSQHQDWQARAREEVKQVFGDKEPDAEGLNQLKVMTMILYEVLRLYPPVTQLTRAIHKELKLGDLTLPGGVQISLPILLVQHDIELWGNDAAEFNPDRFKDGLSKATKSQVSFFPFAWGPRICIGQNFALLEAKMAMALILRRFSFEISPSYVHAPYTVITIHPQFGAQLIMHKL
The experiment is described as above. In kind it is cell-based. To be noted: AtCPR1 co-expressed; 30 °C, 16 h.

On to `C=C1C[C@]23C[C@H]1CC[C@H]2[C@@]12CC[C@H](O)[C@@](C)(C(=O)O1)[C@H]2[C@@H]3C(=O)O` [GA4], for which the “feeding of recombinant WAT11 yeast culture, GC-MS of products” value on CYP72A9 (13-hydroxylation to GA1) was “hydroxylating GA4, GA9, and GA12 at C13 position to produce GA1, GA20, and GA53”. On to `C=C1C[C@]23C[C@H]1CC[C@H]2[C@]1(C)CCC[C@@](C)(C(=O)O)[C@H]1[C@@H]3C(=O)O` [GA12], for which the “feeding of recombinant WAT11 yeast culture, GC-MS of products” value is “utilized ent-kaurenoic acid, GA12 and GA9 as substrates rather than GA4” on CYP72A15; “hydroxylating GA4, GA9, and GA12 at C13 position to produce GA1, GA20, and GA53” on CYP72A9 (13-hydroxylation to GA53).

For the origin of these results see publication PMC7194175 (Nature plants, 2019).
